Assay results: patent publication US3962282A, “Juvenile hormone mimics” (priority 1974, dated 1976)

How the values were obtained:
housefly larvae = test: topical application to housefly larvae; type: in vivo, Musca domestica; settings: scale 0-2
Description: (§1) The compounds were applied in acetone solution at concentrations of 10 percent, 1 percent and 0.5 percent. One microliter of the acetone solution was applied to each test specimen. Ten test specimens were employed for each insect at each concentration and compared to ten acetone controls and ten zero controls. Approximately eight to ten days were required before results could be ascertained.
A number of compounds were tested against housefly larvae by topical application in an acetone solution using the method described above for the primary test against Tenebrio, milkweed bug, wax moth, and Mexican bean bettel. The results with the first compound are reported on a scale of 0 to 3 with 0 indicating a normal adult, 1 indicating an adult with deformed wings, 2 indicating a partially emerged adult, and 3 indicating no evidence of emergence. The results for the other compounds are reported onn a scale of 0 to 2 with 0 indicating a normal adult, 1 indicating a partially emerged adult and 2 indicating no evidence of emergence.

wax moth = test: topical application to wax moth, fifth larval stage, maturation inhibition; type: in vivo; settings: rating scale 0-3
From the text: as §1
The insect species used in the test were Tenebrio molitor pupae; milkweed bug, fourth nymphal stage; wax moth, fifth larval stage; and Mexican bean beetle, fourth larval stage. At the completion of the test, each specimen was examined for the degree of juvenile and adult characteristics. The milkweed bug, wax moth, and Mexican bean beetle were assigned a numerical rating of 0 to 3 with 0 indicating no effect and 3 indicating the maximum effect or least adult development. Because of differences in morphology the Tenebrio rating scale was 0 to 4. In all cases a rating of 2 or higher means that the insect is incapable of reproduction. The number of specimens in each rating classification are given. In any test were the total of specimens reported is less than 10, those unreported died in some metamorphic stage. Such deaths indicate control, since the dead insects are not capable of reproducing.

Mexican bean beetle = test: topical application to Mexican bean beetle, fourth larval stage, maturation inhibition; type: in vivo; settings: rating scale 0-3
Outline: (§2)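 Compounds applied topically, 1 μL acetone solution at 10%, 1% or 0.5%, to ten specimens per insect per concentration, alongside acetone and untreated controls; scored after about 8–10 days. Juvenile/adult characteristics rated 0–3 (Tenebrio 0–4), ≥2 meaning unable to reproduce; unreported specimens died during metamorphosis.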

aphid nymphs = test: application to aphid nymphs in acetone; type: in vivo, Aphis gossypi; settings: 3 days
Description: In another test, female aphids were placed on young squash plants and allowed to produce young for 24 hours. After 24 hours, all adult aphids were removed from the plants and the young were maintained on the plants for an additional 48-hour period. This gave an aphid nymph population having an age of 48 to 72 hours. To each nymph was applied […]. of a 10 percent, 1 percent, or 0.5 percent solution of 2.6- dimethyl-9-(3,4-methylenedioxyphenyl)-2,6-nonadiene or 7,8-epoxy-4-ethyl-8-methyl-1-(3,4-methylenedioxyphenyl)-3-decene in acetone and the aphid nymphs were transferred to new squash plants and observed for possible effects. Ten nymphs were treated with each concentration of each compound and 10 were treated with acetone alone while 10 were not treated to serve as controls. […] There was only one dead nymph treated with acetone alone and one dead nymph in the nontreated controls.

milkweed bug = test: topical application to milkweed bug, fourth nymphal stage, maturation inhibition; type: in vivo; settings: rating scale 0-3
Outline: as §2

[1] = tested on: Housefly (Musca domestica); test: housefly rearing diet test, percent adult emergence; type: in vivo
Description: Test compounds were mixed with the rearing diet of houseflys at various levels. The prepared diet was then placed in an 8 oz. drinking cup. Three cups were prepared for each treatment level and three control cups. Housefly eggs (Musca domestica) were placed in each cup and they were maintained at 28°C. for 1 week. Fifty pupae were then removed from each cup and placed in a petri dish. After the control pupae had emerged into adults, the percent emergence in each dish was recorded. The test compounds used were 7,8-epoxy-4-ethyl-8-methyl-1-(3,4-methylenedioxyphenyl)-3-decene, 4,8-dimetyl-1-(3,4-methylenedioxyphenyl)-2,6-nonadiene and 2,6-dichloro-2,6-dimethyl-9-(3,4-methylenedioxyphenyl)nonane.

[2] = tested on: Aedes aegypti mosquito larvae; test: mosquito larvae in aqueous solutions, adult emergence; type: in vivo; settings: for number of adults, Jar 1 Dead / number of adults, Jar 1 Living / number of adults, Jar 2 Dead / number of adults, Jar 2 Living: 13 days
Description: Two compounds, 7,8-epoxy-4-ethyl-8-methyl-1-(3,4-methylenedioxyphenyl)-3-decene and 2,6-diemthyl-9-(3,4-methylenedioxyphenyl)-2,6-nonadiene, were tested against Aedes aegypti mosquito larvae in aqueous solutions at concentrations of 10, 5, 2.5. 1.25 and 0.625 ppm. each. Ninety milliliters of each solution were placed in a pint jar and 30 five-day-old mosquito larvae were added to each jar. Two tests were run at each concentration and control tests employing only solvent with no compound were also run. Food was added to each jar, the jars were covered with cloths, and maintained at 29°C. until adults emerged in the control jars. The number of adults in the test jars was determined.

Tenebrio molitor pupae = test: topical application to Tenebrio molitor pupae, maturation inhibition; type: in vivo; settings: rating scale 0-4
Outline: as §2

alfalfa weevil larvae = test: topical application to alfalfa weevil larvae; type: in vivo; settings: 10 percent solution in acetone, all controls reached normal adulthood
From the text: A number of compounds were applied topically to alfalfa weevil larvae as a 10 percent solution in acetone. Acetone and nontreated controls were also run. Ten larvae were used in each test. The number of normal adults emerging from the larvae was observed. In each case, all the acetone and nontreated controls reached normal adulthood. The number of normal adults from treated larvae are reported below.

SMILES: CCC(=CCCc1ccc2c(c1)OCO2)CCC1OC1(C)CC (centres unmarked) [7,8-epoxy-4-ethyl-8-methyl-1-(3,4-methylenedioxyphenyl)-3-decene]
- number in rating 0 (normal adult) (housefly larvae; 0.5%): 6
- number in rating 2 (no evidence of emergence) (housefly larvae; 0.5%): 4
- number in rating 0 (normal adult) (housefly larvae; 1%): 5
- number in rating 1 (partially emerged adult) (housefly larvae; 1%): 1
- number in rating 2 (no evidence of emergence) (housefly larvae; 1%): 4
- number in rating 2 (no evidence of emergence) (housefly larvae; 10%): 10
- number of specimens in rating 0 (wax moth; 0.5%): 1 specimens
- number of specimens in rating 3 (wax moth; 0.5%): 9 specimens
- number of specimens in rating 3 (wax moth; 1%): 10 specimens
- number of specimens in rating 3 (Mexican bean beetle; 0.5%): 10 specimens
- number of specimens in rating 3 (Mexican bean beetle; 1%): 10 specimens
- dead nymphs (aphid nymphs; 0.5 percent): nine of the ten
- dead nymphs (aphid nymphs; 1 percent): all of the nymphs
- dead nymphs (aphid nymphs; 10 percent): all of the nymphs
- number of specimens in rating 3 (milkweed bug; 0.5%): 9 specimens
- number of specimens in rating 3 (milkweed bug; 1%): 8 specimens
- percent adult emergence, Cup 1 ([1]; 0.1 ppm in diet): 100%
- percent adult emergence, Cup 2 ([1]; 0.1 ppm in diet): 100%
- percent adult emergence, Cup 3 ([1]; 0.1 ppm in diet): 100%
- percent adult emergence, Cup 1 ([1]; 1 ppm in diet): 100%
- percent adult emergence, Cup 2 ([1]; 1 ppm in diet): 100%
- percent adult emergence, Cup 3 ([1]; 1 ppm in diet): 100%
- percent adult emergence, Cup 1 ([1]; 10 ppm in diet): 100%
- percent adult emergence, Cup 2 ([1]; 10 ppm in diet): 100%
- percent adult emergence, Cup 3 ([1]; 10 ppm in diet): 100%
- control ([1]; 100 ppm): ≥ 80%
- percent adult emergence, Cup 1 ([1]; 100 ppm in diet): 10%
- percent adult emergence, Cup 2 ([1]; 100 ppm in diet): 20%
- percent adult emergence, Cup 3 ([1]; 100 ppm in diet): 10%
- number of adults, Jar 1 Dead ([2]; 0.625 ppm): 0
- number of adults, Jar 1 Living ([2]; 0.625 ppm): 0
- number of adults, Jar 2 Dead ([2]; 0.625 ppm): 0
- number of adults, Jar 2 Living ([2]; 0.625 ppm): 0
- number of adults, Jar 1 Dead ([2]; 1.25 ppm): 0
- number of adults, Jar 1 Living ([2]; 1.25 ppm): 0
- number of adults, Jar 2 Dead ([2]; 1.25 ppm): 0
- number of adults, Jar 2 Living ([2]; 1.25 ppm): 0
- number of adults, Jar 1 Dead ([2]; 2.5 ppm): 0
- number of adults, Jar 1 Living ([2]; 2.5 ppm): 0
- number of adults, Jar 2 Dead ([2]; 2.5 ppm): 0
- number of adults, Jar 2 Living ([2]; 2.5 ppm): 0
- number of adults, Jar 1 Dead ([2]; 5 ppm): 0
- number of adults, Jar 1 Living ([2]; 5 ppm): 0
- number of adults, Jar 2 Dead ([2]; 5 ppm): 0
- number of adults, Jar 2 Living ([2]; 5 ppm): 0
- number of adults, Jar 1 Dead ([2]; 10 ppm): 0
- number of adults, Jar 1 Living ([2]; 10 ppm): 0
- number of adults, Jar 2 Dead ([2]; 10 ppm): 0
- number of adults, Jar 2 Living ([2]; 10 ppm): 0
- control ([2]; at concentrations as low as 0.625 ppm): 100%
- live adults in the jars ([2]; nonadiene at 10, 5, and 2.5 ppm, decene at any concentration): never any live adults
- number of specimens in rating 4 (Tenebrio molitor pupae; 0.5%): 10 specimens
- number of specimens in rating 4 (Tenebrio molitor pupae; 1%): 10 specimens

SMILES: CC(C)=CCCC(C)=CCCc1ccc2c(c1)OCCO2 [9-(3,4-ethylenedioxyphenyl)-2,6-dimethyl-2,6-nonadiene]
- Number of Adults (normal adults from ten treated larvae) (alfalfa weevil larvae): 7
- number of specimens in rating 4 (Tenebrio molitor pupae; 0.5%): 10 specimens
- number of specimens in rating 3 (Tenebrio molitor pupae; 1%): 2 specimens
- number of specimens in rating 4 (Tenebrio molitor pupae; 1%): 8 specimens
- number of specimens in rating 4 (Tenebrio molitor pupae; 10%): 10 specimens

SMILES: COc1cc(CCC=C(C)CCC=C(C)C)cc(OC)c1 [9-(3,5-dimethoxyphenyl)-2,6-dimethyl-2,6-nonadiene]
- Number of Adults (normal adults from ten treated larvae) (alfalfa weevil larvae): 8
